In US6017957A (priority 1989, dated 2000):
Where two headings read alike, the source gives them in different places.

Tests used:
NMDA-induced convulsions = NMDA-induced convulsions and death (anticonvulsant activity); type: in vivo, male NIH-Swiss mice; details: for ED50: Mus musculus, ip, read-out: ED50, protection against NMDA-induced convulsions and death; for dose-response curve shape: NMDA-induced convulsions; for fold more potent than parent compound (ACPC): anticonvulsant potency in vivo
Method: (§1) Male (25-30 g) NIH-Swiss mice (Harlan Sprague-Dawley, Frederick, Md.) were group housed in 32 cm×25 cm×15 cm plastic cages (10-15/cage) with food and water freely available. Mice were injected intraperitoneally with the test substance and challenged fifteen minutes later (unless otherwise specified) with NMDA (125 mg/kg), pentylenetetrazole (PTZ) (80mg/kg), strychnine (strych.) hemisulfate (2 mg/kg, as the base), bicuculline (bicuc.) (6 mg/kg) or maximal electroshock (MES). NMDA, PTZ, and strych. hemisulfate were dissolved in distilled water. Bicuculline was dissolved in 0.01 N HC1. These compounds were injected in a volume of 0.1 ml 1-aminocyclopropanecarboxylates were dissolved in distilled water and doses ≤500 mg/kg injected in a volume of 0.1 ml; doses >500 mg/kg were injected in proportionately larger volumes. Immediately after convulsant challenge, mice were placed in 28.5 cm×17.8 cm×12 cm plastic cages (1/cage) and observed for 15 minutes. The presence or absence of convulsions and the time to the first convulsive episode (latency) were noted. MES were produced by applying a 50 mA current through alligator clips attached to the pinnae for 0.2 s.

[1] = system: pentylenetetrazole (PTZ)-induced convulsions; assay: PTZ-induced convulsions; type: in vivo, male NIH-Swiss mice
Method: as §1

[2] = system: bicuculline-induced convulsions; type: in vivo, male NIH-Swiss mice
Method: as §1

[3] = system: strychnine-induced convulsions; type: in vivo, male NIH-Swiss mice
Method: as §1

[4] = system: maximal electroshock seizures; assay: Maximal electroshock seizures (MES); type: in vivo, male NIH-Swiss mice; details: for effect on MES: ACPC 200-2000, ACPCM 114-571 mg/kg
Method: as §1

[5] = system: motor performance (rotarod); assay: Motor performance, rotarod; type: in vivo, NIH-Swiss mice; details: for impairment of performance in rotarod test: ACPC 100-2000, ACPCM 19-571 mg/kg, MK-801 1 mg/kg, thirty minutes; for % Impairment, Rotarod: i.p., ACPC 400-2000, ACPCM 114-571, MK-801 1 mg/kg
Description: (§2) Evaluation of motor performance:

[6] = system: motor performance (horizontal wire); assay: Motor performance, horizontal (hanging) wire test; type: in vivo, NIH-Swiss mice; details: for impairment of performance in hanging (horizontal) wire test: ACPC 100-2000, ACPCM 19-571 mg/kg, MK-801 1 mg/kg, thirty minutes; for % Impairment, Hanging Wire: i.p., ACPC 400-2000, ACPCM 114-571, MK-801 1 mg/kg
Description: as §2

[7] = target: T1, strychnine-insensitive glycine receptors (NMDA receptor complex) (Rattus norvegicus, UniProt P35439); details: cited from earlier work
T1 construct: Synaptic membranes were prepared from forebrains of adult; from tissue; host or cells: forebrain (whole brain minus cerebellum and brainstem) synaptic membranes of adult male Sprague-Dawley rats

NMDA receptor complex = details: compared with glycine; Marvizon et al, 1989; cited from earlier work
[8] = system: NMDA-gated cation channels; details: Nadler et al, 1988; cited from earlier work
[9] = system: strychnine insensitive glycine binding site of the N-methyl-D-aspartate (NMDA) receptor complex; details: Marvizon, 1989; cited from earlier work
Overt behavioral effects = details: for overt behavioral effects: ACPC 100-2000, ACPCE 39-195, ACPCM 19-571 mg/kg
[10] = target: T1, strychnine-insensitive glycine receptors (NMDA receptor complex); assay: Inhibition of [^3 H]glycine binding; type: male Sprague-Dawley rats (forebrain synaptic membranes); details: rat forebrain synaptic membranes, 0-4°, 60 min
Method: Membrane preparation: Synaptic membranes were prepared from forebrains of adult (250-350 g) male Sprague-Dawley rats (Taconic Farms, Germantown, N.Y.) by modification of the method of Bristow et al, (1986). In brief, forebrains (whole brain minus cerebellum and brainstem) were weighed and then disrupted for 30 s (Ultra-Turrax, Model STD) in 10 volumes of 0.32 M sucrose containing 5 mM HEPES/4.5 mM Tris pH 7.4. The homogenate was diluted to 50 volumes with this buffer and centrifuged for 10 minutes (1000×g). […]
[^3 H]Glycine binding: Immediately prior to assay, aliquots were thawed at 0-40 and "washed" 3 more times as described above. Membranes (0.1-0.3 mg prot.) were incubated for 60 minutes at 0-4° in HEPES-Tris buffer containing 1 mM MgCl2, ([^3 H]glycine (20 Ci/mmol, ISN, Irvine, Calif.), and drugs as indicated. Nonspecific binding was defined using 1 mM glycine. Incubations (1 ml) were terminated by centrifugation (Eppendorf Model 5414 Microfuge, 5 minutes) and the pellets washed superficially with 1 ml of assay buffer. The pellets were solubilized with 0.5 ml of NCS (Amersham, Arlington Heights, Ill.), agitated for 45 minutes, and 0.05 ml of glacial acetic acid added. Four ml of OCS (Amersham) was added and the radioactivity measured in a Beckman LS 5801 liquid scintillation counter.

[11] = system: pentylenetetrazole (PTZ)-induced convulsions; details: MK-801; Clineschmidt et al, 1982a; cited from earlier work
[12] = system: strychnine-induced convulsions; details: MK-801; Clineschmidt et al, 1982a; cited from earlier work
[13] = system: bicuculline-induced convulsions; details: MK-801; Clineschmidt et al, 1982a; cited from earlier work
[14] = system: [^3 H]glycine binding (NMDA receptor complex); details: MK-801 10 μM; Marvizon and Skolnick, 1988; cited from earlier work
[15] = i.p., 15 min before NMDA 125 mg/kg, ACPC 100-500, ACPCE 39-195, ACPCM 19-190 mg/kg
[16] = ACPC 200-2000, ACPCM 114-571 mg/kg i.p.
[17] = NMDA 125 mg/kg, vehicle injected mice

For `NC1(C(=O)O)CC1` [ACPC, 1-aminocyclopropanecarboxylic acid], the “anticonvulsant effect still manifest after (duration)” value (NMDA-induced convulsions; ACPC 400 mg/kg) was 30 min, the “maximum protection against NMDA-induced convulsions” value (NMDA-induced convulsions; ACPC 400 mg/kg) was 85% and the “protection against NMDA-induced convulsions and death (efficacy, time)” value (NMDA-induced convulsions; ACPC 400 mg/kg, 15 minutes prior to NMDA) was “most efficacious”. For the same molecule, the ED50 (NMDA-induced convulsions) was 234 mg/kg, the dose-response curve shape (NMDA-induced convulsions) was “"bell-shaped" dose-response curve” and the “Complete protection against NMDA-induced convulsions” value (“Complete protection” below) (NMDA-induced convulsions; i.p.) was “inability of ACPC to completely block NMDA-induced convulsions”. For the same molecule, the “Effect on convulsions induced by NMDA (125)” value (“Effect … (125)” for short) (NMDA-induced convulsions; [15]) was “+”, the “latency to convulsions induced by PTZ” value ([1]; ACPC 400 mg/kg) was “not significantly altered” and the “protection against PTZ-induced convulsions” value ([1]; ACPC 400 mg/kg) was “did not afford significant protection”. For the same molecule, the “Effect on convulsions induced by PTZ (80)” value ([1]; ACPC 400 mg/kg i.p., PTZ 80 mg/kg) was “-”, the “latency to convulsions induced by bicuc.” value ([2]; ACPC 400 mg/kg) was “not significantly altered” and the “protection against bicuc.-induced convulsions” value ([2]; ACPC 400 mg/kg) was “did not afford significant protection”. For the same molecule, the “Effect on convulsions induced by BICUC. (6)” value ([2]; ACPC 400 mg/kg i.p., bicuculline 6 mg/kg) was “-”, the “latency to convulsions induced by strych.” value ([3]; ACPC 400 mg/kg) was “not significantly altered” and the “protection against strych.-induced convulsions” value ([3]; ACPC 400 mg/kg) was “did not afford significant protection”. For the same molecule, the “Effect on convulsions induced by STRYCH. (2)” value ([3]; ACPC 400 mg/kg i.p., strychnine 2 mg/kg) was “-”, the “effect on MES” value [4] was “Neither ACPC (200-2000 mg/kg) nor ACPCM (114-571 mg/kg) had a significant, dose-dependent effect” and the “Effect on convulsions induced by MES” value [4, 16] was “-”. The “impairment of performance in rotarod test” value (shortened to “impairment … in rotarod test”) [5] was “no impairment”, the “% Impairment, Rotarod” value [5] was 0% and the “impairment of performance in hanging (horizontal) wire test” value (“impairment of performance in hanging” below) [6] was “no impairment”. For the same molecule, the “% Impairment, Hanging Wire” value [6] was 0%, the IC50 ([7]; ACPC, Marvizon et al, 1989, read-out: Inhibition of [^3 H] glycine binding IC50) was 38 ± 7 nM and the “inhibition of strychnine-insensitive [^3 H]glycine binding (type)” value ([7]; Marvizon et al, 1989) was “potent, competitive inhibitor”. The Ki ([7]; Marvizon et al, 1989, read-out: affinity K1 for strychnine-insensitive glycine receptors in vitro) was 32 nM, the “enhancement of [3H]MK-801 binding” value (NMDA receptor complex) was “enhances [3H]MK-801 binding to this supramolecular complex with a lower efficacy than glycine” and the “enhancement of [^3 H]TCP binding” value [8] was “enhances [^3 H]TCP binding”. The “partial agonism at strychnine insensitive glycine binding site” value [9] was “potent and selective partial agonist”, the overt behavioral effects (Overt behavioral effects) was “No overt behavioral effects” and the “overt behavioral effects or neurotoxicity” value (Overt behavioral effects; mouse, in vivo) was “lack of overt behavioral effects or neuro-toxicity”. The “therapeutic index versus competitive or non-competitive NMDA receptor antagonists” value (Overt behavioral effects; mouse, in vivo) was “greater therapeutic index”.
With `CCOC(=O)C1(N)CC1` [ACPCE, ethyl l-aminocyclopropanecarboxylate] the ED50 (NMDA-induced convulsions) was 100 mg/kg, the dose-response curve shape (NMDA-induced convulsions) was “"bell-shaped" dose response curve” and the “fold more potent than parent compound (ACPC)” value (NMDA-induced convulsions) was ~ 2.3 fold. The “Complete protection” value (NMDA-induced convulsions; i.p.) was “neither ester could completely block NMDA-induced convulsions and deaths”, the “Effect … (125)” value (NMDA-induced convulsions; [15]) was “+” and the IC50 [10] was over 40000 nM. The overt behavioral effects (Overt behavioral effects) was “No overt behavioral effects” and the “overt behavioral effects or neurotoxicity” value (Overt behavioral effects; mouse, in vivo) was “no overt behavioral effects or neurotoxicity were observed”.
With `COC(=O)C1(N)CC1` [ACPCM, methyl 1-aminocyclopropanecarboxylate] the “maximum efficacy apparent after injection (time)” value (NMDA-induced convulsions; ACPCM 114 mg/kg) was 5 to 15 min, the “onset and duration of anticonvulsant action relative to ACPC” value (NMDA-induced convulsions; ACPCM 114 mg/kg) was “manifest more rapidly than ACPC but of shorter duration” and the ED50 (NMDA-induced convulsions) was 46 mg/kg. The dose-response curve shape (NMDA-induced convulsions) was “"bell-shaped" dose response curve”, the “fold more potent than parent compound (ACPC)” value (NMDA-induced convulsions) was ~ 5 fold and the “Complete protection” value (NMDA-induced convulsions; i.p.) was “neither ester could completely block NMDA-induced convulsions and deaths”. For the same molecule, the “Effect … (125)” value (NMDA-induced convulsions; [15]) was “+”, the “effect on MES” value [4] was “Neither ACPC (200-2000 mg/kg) nor ACPCM (114-571 mg/kg) had a significant, dose-dependent effect” and the “Effect on convulsions induced by MES” value [4, 16] was “-”. The “impairment … in rotarod test” value [5] was “no impairment”, the “% Impairment, Rotarod” value [5] was 0% and the “impairment of performance in hanging” value [6] was “no impairment”. For the same molecule, the “% Impairment, Hanging Wire” value [6] was 0%, the IC50 [10] was over 40000 nM and the overt behavioral effects (Overt behavioral effects) was “No overt behavioral effects”. For the same molecule, the “overt behavioral effects or neurotoxicity” value (Overt behavioral effects; mouse, in vivo) was “no overt behavioral effects or neurotoxicity were observed”.
In the case of `C[C@]12N[C@H](Cc3ccccc31)c1ccccc12` [MK-801, (+)-5-Methyl-10,11-dihydro-5H-dibenzo [a,d]cyclo-hepten-5,10-imine, reference compound], the “Effect … (125)” value (NMDA-induced convulsions; MK-801 1 mg/kg i.p., positive control, superscript 3) is reported as “+”, the “protection against NMDA-induced lethality” value (NMDA-induced convulsions; MK-801 1 mg/kg, thirty minutes following administration) is reported as “complete protection” and the “Effect on convulsions induced by MES” value ([4]; MK-801 1 mg/kg i.p., superscripts 1,3) is reported as “+”. The “abolished hindclimb tonic extensor component of MES, % of mice” value ([4]; MK-801 1 mg/kg, thirty minutes before MES) was 87%, the “impairment … in rotarod test” value [5] was “complete impairment” and the “% Impairment, Rotarod” value [5] was 100%. For the same molecule, the “impairment of performance in hanging” value [6] was “complete impairment”, the “% Impairment, Hanging Wire” value [6] was 100% and the “Effect on convulsions induced by PTZ (80)” value [11] was “+”. For the same molecule, the “Effect on convulsions induced by STRYCH. (2)” value [12] was “-”, the “Effect on convulsions induced by BICUC. (6)” value [13] was “+” and the “Inhibition of [^3 H] glycine binding, mode” value ([7]; MK-801, Marvizon and Skolnick, 1988) was “noncom-”. The “inhibition of activation of [^3 H]glycine binding by Mg^+2” value [14] was “non-competitively inhibits” and the hyperactivity (Overt behavioral effects; MK-801 1 mg/kg, thirty minutes after administration) was “profound hyperactivity”.
In the case of `CN[C@H](CC(=O)O)C(=O)O` [NMDA, N-methyl-D-aspartate, reference compound], the “convulsions and death, mice affected” value (NMDA-induced convulsions; [17]) is reported as “all” and the latency to convulsions (NMDA-induced convulsions; [17]) is reported as 4.6 ± 0.4 min.
For `CN1CCc2cc3c(cc2[C@H]1[C@@H]1OC(=O)c2c1ccc1c2OCO1)OCO3` [bicuculline, reference compound], the “convulsions, % of mice” value ([2]; bicuculline 6 mg/kg) was 100% and the latency to convulsions ([2]; bicuculline 6 mg/kg) was 2.1 ± 0.3 min.
For `C1CCc2nnnn2CC1` [pentylenetetrazole, reference compound], the “convulsions, % of mice” value ([1]; PTZ 80 mg/kg) was 100% and the latency to convulsions ([1]; PTZ 80 mg/kg) was 1.4 ± 0.2 min.
In the case of `O=C1C[C@@H]2OCC=C3CN4CC[C@]56c7ccccc7N1[C@H]5[C@H]2[C@H]3C[C@H]46` [strychnine, reference compound], the “convulsions, % of mice” value ([3]; strychnine 2 mg/kg) is reported as 100% and the latency to convulsions ([3]; strychnine 2 mg/kg) is reported as 3.1 ± 0.4 min.
